# In patent US20180134726A1, “PLANT GROWTH REGULATING COMPOUNDS” (Syngenta Participations AG, priority 2012, published 2018):
# Legend:
# [1] = tested on: Orobanche cumana Wallr. seeds (race 'F'); assay: Orobanche cumana seed germination test on glass fiber filter paper; type: in vivo; conditions: preconditioned seeds, seed lot IN153, 10 days at 20° C. in the dark, mean, N = 5 × 100 seeds
# Procedure: The effect of compounds of Formula (I) on germination of Orobanche cumana Wallr. seeds was evaluated on glass fiber filter paper (GFFP) in petri dishes. Seeds were preconditioned at moisture and suitable temperature to become responsive to the specific chemical germination stimulants.
# Test compounds were dissolved in DMSO (10 000 mg l^−1) and stored at room temperature in a desiccators with desiccants. The stock solutions were dissolved with deionised water to the appropriate final test concentration.
# Seeds of O. cumana race ‘F’ were collected from sunflower fields in Manzanilla (Seville, Spain) in 2008 (seed lot IN153) and stored at room temperature. To separate seeds from heavy organic debris, a modified sucrose floatation technique as described by Hartman & Tanimonure (Plant Disease (1991), 75, p. 494) was applied. Seeds were filled into a separation funnel and stirred in water. When seeds floated to the surface, the water fraction containing heavy debris was discarded. Seeds were re-suspended in 2.5M sucrose solution (specific gravity of 1.20) and heavy debris was allowed to settle down for 60 min. After removing debris, seeds were disinfected in 1% sodium hypochlorite solution and 0.025% (v/v) Tween 20 for 2 min. The seeds were decanted onto two layers of cheesecloth, rinsed with sterile deionised water and re-suspended in sterile deionised water. Two ml of the seed suspension containing approximately 150-400 seeds were spread evenly on two layers of sterile glass fiber filter paper disc ([…]) in Petri dishes (Ø9 cm). After wetting the discs with 3 ml sterile deionised water, petri dishes were sealed with parafilm. Seeds were incubated for 10 days at 20° C. in the dark for seed conditioning. The upper disc with conditioned seeds was briefly dried, transferred to a petri dish lined with a dry GFFP disc, and wetted with 6 ml of the appropriate test solution. The compounds of Formula (I) were tested at concentrations of 0.001, 0.01, and 0.1 mg l^−1. The strigolactone analogue GR24 (commercially available as a mixture of isomers) was included as positive control and 0.001% DMSO as negative control. All treatments were tested in five replicates. Seeds were re-incubated at 20° C. in the dark and examined for germination 10 days later. The radicles of germinated seeds were stained for 5 min with blue ink (MIGROS, Switzerland) in 5% acetic acid according to Long et al. (Seed Science Research (2008), 18, p. 125). After staining, seeds were scanned using a flatbed scanner with an optical resolution of 1200 dpi (PULSTEK, OpticPro ST28) or photographed using a camera stand mounted with a digital SLR camera (Canon EOS 5D). Germination of 100 seeds per replicate was evaluated on digital images. Seeds were considered germinated when the radicle protruded from the seed coat.
# [2] = tested on: Brassica oleracea cv Botrytis (temperate cauliflower Spacestar) seeds; assay: Cauliflower paper germination test under suboptimal conditions; type: in vivo; conditions: 25 μM, 10° C. and in the light
# Procedure: The effect of compounds of Formula (I) on the germination of Brassica oleracea cv Botrytis or common cauliflower was tested on two types of cauliflowers: temperate types and tropical types. These two types were chosen because they display different sensitivities to the light conditions and temperature during germination. Germination of a sensitive temperate type is inhibited by light at 10° C. while for the tropical types germination at 20° is stimulated by the presence of light. […] The temperate seed batches tested are part of commercially produced seed batches of various varieties which are known to be sensitive to light at 10° C. These seeds were harvested and cleaned according standard commercial procedures. Ready seed batches were used (Ready indicates the processing level of these seeds: they have been cleaned and sized but received no other treatments). The tropical seed batches tested are part of seed batches produced as basic seed (for maintenance of the parental line) and were processed accordingly. Germination was assessed using the standard paper germination test for Brassica: Fifty seeds were placed on blue germination paper, which was moistened with the appropriate solutions, in closed oblong germination boxes. Each condition was tested in duplo. Germination boxes were placed in controlled germination cabinets with the appropriate temperature and light conditions. Germination of seeds was counted at regular intervals. Seeds were considered to be germinated when the radical had protruded the testa and endosperm (radical size approximately 1 mm). Test compounds were dissolved in DMSO at a concentration of 50 mM and stored at −20° C. The strigolactone analogue GR24 (commercially available as a racemic mixture of 2 diastereoisomers, referred to as “synthetic strigolactone GR-24” and first prepared by Johnson A. W. & all, Journal of the Chemical Society, Perkin Transactions 1, 1981, page 1734-1743) was included as positive control. Germination solutions were prepared by diluting the stock solutions with demineralized water till 25 μM. As control solutions demineralized water and a 0.05% v/v DMSO solution were used.
# [3] = Spacestar seed batch 11B313 (cold-sensitive)
# [4] = Spacestar seed batch 11B314 (not cold sensitive)
Structure (SMILES),Germination (%) ([1]; 0.001 mg l^−1),Germination (%) ([1]; 0.01 mg l^−1),Germination (%) ([1]; 0.1 mg l^−1),"Gmax (total germination as percentage of sown seeds) [2, 3] [%]","stimulation (extra germination compared to the DMSO treatment, as percentage of the germination in the DMSO treatment) [2, 3] [%]","Gmax (total germination as percentage of sown seeds) [2, 4] [%]","stimulation (extra germination compared to the DMSO treatment, as percentage of the germination in the DMSO treatment) [2, 4] [%]"
"CC1=C[C@H](O/C=C2/C(=O)N[C@@H]3c4ccsc4C[C@H]23)OC1=O (racemic) [Compound A3, (3aR*,8bS*)-(3E)-3-[(2R)(4-methyl-5-oxo-2H-furan-2-yl)oxymethylene]-3,3a,4,8b-tetrahydro-1H-thioindeno[1,2-b]pyrrol-2-one]",87.8,85.6,84.6,75.0,38.9,94.0,9.3
CC1=C[C@H](O/C=C2/C(=O)O[C@@H]3c4ccccc4C[C@H]23)OC1=O [GR24],67,65,78.4,71.5,19.2,93.5,3.3
